The source of these data is PubChem BioAssay (NCI).

Common to all, as to assay: growth of human tumour cells (NCI), 48 h
The test system of experiment [1] is SR leukemia.
Experiment [2] deals with OVCAR-4 ovarian.
Experiment [3] relates to SN12C renal.
Experiment [4] has as its system MALME-3M melanoma.
Experiment [5] has as its system HCT-15 colon.
The test system of experiment [6] is NCI-H460 lung.
Experiment [7] relates to HCT-116 colon.
Experiment [8] relates to SF-539 CNS.
Experiment [9] relates to NCI/ADR-RES ovarian.
The subject of experiment [10] is SK-OV-3 ovarian.

Where “and” joins values, the source holds several entries; their conditions need not be identical. Identical values can stand only once.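 Test compounds were applied to cells in 96-well plates for 48 hours at 5 doses. GI50 = concentration required for 50% inhibition of growth. The concentration for full growth arrest is given as TGI.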

With `CC1=C(/C=C/C(C)=C\C=C\C(C)=C\C(=O)Nc2ccc3c(c2)OCO3)C(C)(C)CCC1`, the GI50 in [1] is 11.3 µM; in experiment [2] it was 21 µM; in experiment [3], above 100 µM; in [4] it was 7.93 µM; in [5] it was 36.4 µM; in experiment [6], 50.5 µM. Also, the GI50 in experiment [7] was 29.5 µM; in [8], 51.3 µM; in experiment [9], 73 µM; in experiment [10], above 100 µM. For the same compound, the TGI is 47.7 µM in experiment [1]; above 100 µM in experiment [2]; above 100 µM in [3]; above 100 µM in experiment [4]; above 100 µM in experiment [5]; above 100 µM in experiment [6]. The TGI in experiment [7], in [8], in [9] and in experiment [10] was above 100 µM in each case.

Turning to `CC(C)(C)N1CCC1C(N)=O` (centres undefined), the GI50 in [1], in experiment [2], in experiment [3], in experiment [4], in experiment [5] and in experiment [6] was above 100 µM in each case. Besides, the GI50 in experiment [7], in [8], in experiment [9] and in experiment [10] was above 100 µM in each case. Besides, the TGI in experiment [1], in experiment [2], in [3], in experiment [4], in experiment [5] and in experiment [6] was above 100 µM throughout. Moreover, the TGI in [7], in [8], in experiment [9] and in experiment [10] was above 100 µM in each case.

Turning to `CCCCn1c2cc(OCc3cn(-c4ccc(Cl)cc4)nn3)ccc2c2ccnc(C)c21`, the GI50 was 5.2 µM in experiment [1]; 5.95 µM in [2]; 8.16 µM in experiment [3]; 5.98 µM in [4]; 6.74 µM in experiment [5]; 7.2 µM in experiment [6]. Moreover, the GI50 was 5.11 µM in [7], 5.11 µM in experiment [8], 6.98 µM in [9] and 5.45 µM in [10]. Further, the TGI was 22.4 µM in experiment [1]; 25.5 µM in experiment [2]; above 33.3 µM in [3]; 14.5 µM in experiment [4]; above 33.3 µM in experiment [5]; 18.6 µM in experiment [6]. The TGI worked out at 13.2 µM in experiment [7], 10.3 µM in experiment [8], 29.7 µM in [9] and 13.4 µM in experiment [10].

Turning to `O=C(O)C(=Cc1ccnc2ccccc12)C(=O)O`, the TGI in [1], in experiment [3], in experiment [4], in experiment [5], in experiment [6] and in [7] was above 100 µM throughout. The TGI in experiment [8], in experiment [9] and in [10] was above 100 µM throughout.

Take `N#CC(=S)Nc1cccc(Cl)c1`: the TGI in experiment [2], in experiment [3], in [4], in experiment [5], in [6] and in experiment [7] was above 100 µM in each case. The values for the TGI in experiment [8], in experiment [9] and in experiment [10] were 93.7 µM, above 100 µM and 87.9 µM, respectively.

`CCOP(=O)(OCC)C(NC(c1ccccc1)c1ccccc1)c1ccccc1` (centres undefined): the GI50 in experiment [2] was 51.8 µM; in experiment [3], 16.8 µM; in experiment [5], 13.7 µM; in [6] it was 17.2 µM; in experiment [7], 13.2 µM; in experiment [8] it was 17.2 µM. Moreover, the GI50 in experiment [9] was 11 µM; in [10], 24.3 µM. Moreover, the TGI is above 100 µM in [2]; 32.6 µM in [3]; 27.6 µM in [5]; 41 µM in experiment [6]; 26 µM in experiment [7]; 33.1 µM in experiment [8]. Besides, the TGI came to 24.8 µM in [9] and 52 µM in experiment [10].

For the compound `Nc1ccccc1C#C/C=C\C#Cc1ccccc1C(F)(F)F`, the GI50 in experiment [1] is 0.247 µM; in [3], 0.399 µM; in experiment [5], 1.13 µM; in experiment [6], 1.53 µM; in experiment [7], 0.432 µM; in experiment [8], 0.669 µM. Moreover, the GI50 in experiment [9] was 0.302 µM; in experiment [10], 0.888 µM. Besides, the TGI in experiment [1] is 0.691 µM; in [3] it was 9.45 µM; in experiment [5], 12.5 µM; in [6], above 40 µM; in [7], above 35.4 µM; in experiment [8], 3.55 µM. Further, the figures for the TGI in [9] and in [10] were 2.89 µM and 24.7 µM, respectively.

Consider `O=c1cc(C(F)(F)F)c2cc3c(cc2o1)NCCC3`, for which the TGI in experiment [1], in experiment [2], in experiment [3], in experiment [4], in experiment [5] and in experiment [6] was above 100 µM in each case. For the same compound, the TGI in experiment [7], in experiment [8] and in experiment [9] was above 100 µM in each case.

`Cc1cn(C2CC(F)C(CO)O2)c(=O)[nH]c1=O` (centres undefined): the GI50 was above 100 µM in [1]; above 100 µM in experiment [2]; above 100 µM in [3]; above 100 µM in experiment [4]; above 100 µM in experiment [5]; 0.963 µM in experiment [6]. Moreover, the GI50 in experiment [7], in experiment [9] and in experiment [10] was above 100 µM each time. Moreover, the TGI in experiment [1], in experiment [2], in experiment [3], in experiment [4], in experiment [5] and in [6] was above 100 µM in each case. In addition, the TGI in experiment [7], in experiment [9] and in [10] was above 100 µM in each case.

With `CCCC1c2c(ccc3ccccc23)Oc2ccc3ccccc3c21`, the TGI in experiment [2], in experiment [3], in [4], in experiment [5], in experiment [6] and in experiment [7] was above 100 µM in each case. Besides, the TGI in [8], in experiment [9] and in experiment [10] was above 100 µM throughout.

As for `C[C@@H]1C=C(CCCCCCCCCCC[C@H](O)[C@@H]2CCC(=O)O2)C(=O)O1`, the GI50 in [2] was above 100 µM; in [3], 25.3 µM; in [4], 19.1 µM; in [5] it was 25.5 µM; in [6], 31.2 µM; in experiment [7] it was 28 µM. Besides, the GI50 in experiment [8] is 38.8 µM; in [9] it was 12.1 µM; in [10] it was 51.7 µM. Also, the TGI in experiment [2] is above 100 µM; in experiment [3], 82.8 µM; in [4] it was 46.6 µM; in experiment [5], above 100 µM; in experiment [6], above 100 µM; in [7], above 100 µM. Also, the TGI in experiment [8] is above 100 µM; in experiment [9], 34 µM; in experiment [10] it was above 100 µM.

In the case of `C/C(=N/S(=O)(=O)c1ccc(Cl)c(Cl)c1)OCC(C)(C)C`, the TGI in experiment [2], in [3], in experiment [4], in experiment [5], in experiment [6] and in [7] was above 100 µM each time. The TGI in [8], in [9] and in [10] was above 100 µM in each case.

In the case of `CC(=O)O[C@H]1C(=O)[C@@]2(C)C(C(OC(=O)c3ccccc3)[C@]3(O)CC(OC(=O)[C@H](OC(=O)CCC(=O)O)C(NC(=O)c4ccccc4)c4ccccc4)C(C)=C1C3(C)C)C1(OC(C)=O)COC1C[C@@H]2OC(=O)CCC(=O)O` (some centres undefined), the GI50 was below 0.0202 µM in experiment [1]; > 100 µM and 26.6 µM in [9]. Further, the TGI is above 23.3 µM in [1]; above 100 µM in experiment [2]; above 100 µM in experiment [3]; above 100 µM in experiment [4]; above 100 µM in experiment [5]; above 100 µM in [7]. The TGI in experiment [8] is 2.72 µM; in experiment [9], above 100 µM; in experiment [10], above 100 µM.

As to `N[C@@H](Cc1c[nH]c2ccccc12)C(=O)NC1CCN(C(=O)c2c[nH]c3ccccc23)CC1`, the GI50 in [2] was 69.2 µM; in experiment [3], above 100 µM; in [4], 77.5 µM; in experiment [5] it was above 100 µM; in [6], 79.9 µM; in [7] it was 36.3 µM. Further, the GI50 in experiment [8] was above 100 µM; in experiment [9] it was above 100 µM; in experiment [10] it was 90.5 µM. The TGI in experiment [2], in experiment [3], in experiment [4], in [5], in [6] and in experiment [7] was above 100 µM each time. For the same compound, the TGI in experiment [8], in experiment [9] and in experiment [10] was above 100 µM each time.

As to `COc1cc(Nc2nc3cc(N)cc(N)c3nc2-c2ccccc2)cc(OC)c1`, the GI50 in experiment [1] is 5.67 µM; in [2], 17.8 µM; in experiment [3], 8.62 µM; in experiment [4], 4.34 µM; in experiment [5], 20 µM; in [6], 7.91 µM. Also, the values for the GI50 in [7], in [9] and in [10] were 16.9 µM, 12.9 µM and 6.55 µM, respectively. In addition, the TGI was above 100 µM in experiment [1]; above 100 µM in experiment [2]; above 100 µM in experiment [3]; 24.6 µM in [4]; above 100 µM in experiment [5]; 52.8 µM in experiment [6]. In addition, the TGI in experiment [7] was 54.1 µM; in experiment [9] it was 73.4 µM; in experiment [10] it was 40.2 µM.

As for `O=c1c2ccccc2c2ccccc2c(=O)n1-c1cc2c3ccccc3ccc2c2ccccc12`, the TGI in experiment [2], in experiment [3], in experiment [4], in experiment [5], in experiment [6] and in [7] was above 100 µM each time. Also, the TGI in [8], in [9] and in experiment [10] was above 100 µM in each case.

As to `CC(=O)Nc1ccc(/C=C/[N+](=O)[O-])cc1`, the TGI was 7.97 µM in [2]; 9.8 µM in experiment [3]; 17.7 µM in [4]; above 19.6 µM in [5]; 20.7 µM in [6]; 6.07 µM in experiment [7]. The TGI was 6.35 µM in experiment [8], 31.3 µM in [9] and 24.1 µM in experiment [10].

Regarding `CC12CCC3C(CC=C4CC(O)CCC43C)C1C/C(=C\N1CCCC1)C2=O` (centres undefined), the GI50 in experiment [2] was 61 µM; in experiment [3] it was 85 µM; in experiment [4], 71.5 µM; in experiment [5], 87.1 µM; in experiment [6], above 100 µM; in experiment [7], 69.3 µM. The GI50 in experiment [8], in [9] and in experiment [10] was above 100 µM throughout. In addition, the TGI in experiment [2], in experiment [3], in [4], in [5], in experiment [6] and in [7] was above 100 µM throughout. For the same compound, the TGI in [8], in experiment [9] and in [10] was above 100 µM each time.

For `OCCCCC#Cc1ccccc1C#Cc1ccccc1`, the GI50 in experiment [2] is 18 µM; in [3], 13.5 µM; in experiment [4], 16.9 µM; in [5], 11.7 µM; in experiment [6] it was 22.4 µM; in experiment [7], 16.8 µM. Moreover, the GI50 in experiment [8] is 10.8 µM; in [9] it was 17 µM; in experiment [10], 10.7 µM. Also, the TGI amounted to 53.2 µM in [2]; 27.8 µM in [3]; 32.1 µM in experiment [4]; 24.2 µM in [5]; 62.6 µM in experiment [6]; 31.6 µM in experiment [7]. Moreover, the TGI in experiment [8] stood at 24.1 µM; in experiment [9], 47.3 µM; in [10] it was 26.7 µM.
